Test results: ChEMBL document CHEMBL1158320, “Antiandrogenic natural Diels--Alder-type adducts from Brosimum rubescens” (J Nat Prod, 1997)
Calls of active or inactive are those of the source. The calls are words filed in the database; no cut-off is given here.

How the values were obtained:
Conditions in all cases: Prostate gland
[1] = molecular target: T1, Androgen receptor (Rattus norvegicus) (UniProt P15207); experiment: Displacement of [3H]dihydrotestosterone from androgen receptor in Wistar rat ventral prostate at 50 ug/mL by liquid scintillation counting; format: tissue-based
T1 sequence (whole entry): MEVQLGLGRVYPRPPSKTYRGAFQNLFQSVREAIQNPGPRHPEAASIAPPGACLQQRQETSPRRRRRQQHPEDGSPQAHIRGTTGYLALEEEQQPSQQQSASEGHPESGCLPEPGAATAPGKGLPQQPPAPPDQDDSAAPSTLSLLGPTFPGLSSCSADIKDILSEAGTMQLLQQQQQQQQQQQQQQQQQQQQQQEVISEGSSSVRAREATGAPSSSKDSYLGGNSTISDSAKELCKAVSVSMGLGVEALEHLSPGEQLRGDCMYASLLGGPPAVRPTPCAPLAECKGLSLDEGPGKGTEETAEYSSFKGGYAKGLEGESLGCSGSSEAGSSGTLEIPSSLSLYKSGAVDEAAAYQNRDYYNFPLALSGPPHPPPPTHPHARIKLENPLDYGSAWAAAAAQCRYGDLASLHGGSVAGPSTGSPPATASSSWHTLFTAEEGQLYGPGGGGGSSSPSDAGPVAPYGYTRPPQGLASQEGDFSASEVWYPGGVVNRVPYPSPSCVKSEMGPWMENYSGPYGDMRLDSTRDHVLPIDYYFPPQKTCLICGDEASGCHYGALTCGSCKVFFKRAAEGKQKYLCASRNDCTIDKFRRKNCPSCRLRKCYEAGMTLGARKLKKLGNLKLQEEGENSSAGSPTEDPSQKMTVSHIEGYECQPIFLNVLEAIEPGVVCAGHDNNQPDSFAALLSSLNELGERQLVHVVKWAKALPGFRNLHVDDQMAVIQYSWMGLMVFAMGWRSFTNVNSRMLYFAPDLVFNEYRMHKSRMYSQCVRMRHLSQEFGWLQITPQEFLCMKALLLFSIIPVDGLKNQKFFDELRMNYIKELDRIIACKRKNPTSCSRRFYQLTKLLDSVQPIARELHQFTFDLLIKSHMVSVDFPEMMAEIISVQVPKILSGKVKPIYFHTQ

[2] = molecular target: T1, Androgen receptor (Rattus norvegicus); experiment: Displacement of [3H]dihydrotestosterone from androgen receptor in Wistar rat ventral prostate at 200 ug/mL by liquid scintillation counting
[3] = organism: Rattus norvegicus; experiment: Inhibition of 5alpha reductase in Wistar rat ventral prostate at 100 ug/mL by radiochromatography; format: tissue-based
[4] = organism: Rattus norvegicus; experiment: Inhibition of 5alpha reductase in Wistar rat ventral prostate at 200 ug/mL by radiochromatography; format: tissue-based
[5] = organism: Rattus norvegicus; experiment: Inhibition of 5alpha reductase in Wistar rat ventral prostate at 50 ug/mL by radiochromatography; format: tissue-based
[6] = molecular target: T1, Androgen receptor (Rattus norvegicus); experiment: Displacement of [3H]dihydrotestosterone from androgen receptor in Wistar rat ventral prostate at 100 ug/mL by liquid scintillation counting; format: tissue-based

Compound: COc1cc(O)ccc1[C@H]1Oc2cc3oc(=O)ccc3cc2[C@@H]2C=C(C)C[C@@H](c3ccc(O)cc3OC)[C@H]12
- inhibition [1]: 60.3%
- inhibition [2]: 62%
- inhibition [3]: 49.9%
- inhibition [4]: 72.3%
- inhibition [5]: 8.6%
- inhibition [6]: 70.9%

Compound: CC[C@H]1C[C@H]2[C@@H]3CCC4=CC(=O)CC[C@@H]4[C@H]3CC[C@]2(C)[C@H]1O
- Activity [5]: Active

Compound: COc1cc(O)ccc1[C@H]1Oc2cc3oc(=O)ccc3cc2[C@@H]2C=C(C)C[C@@H](c3ccc(O)cc3)[C@H]12
- inhibition [1]: 62.5%
- inhibition [2]: 78.6%
- inhibition [3]: 28.8%
- inhibition [4]: 59.2%
- inhibition [5]: 5.4%
- inhibition [6]: 73.3%

Compound: COc1cc(O)ccc1[C@@H]1CC(C)=C[C@H]2c3cc4ccc(=O)oc4cc3O[C@H](c3ccc(O)cc3)[C@H]21
- inhibition [1]: 56.5%
- inhibition [2]: 61.5%
- inhibition [3]: 44.1%
- inhibition [4]: 69.2%
- inhibition [5]: 3.4%
- inhibition [6]: 57.5%

Compound: COc1cc(O)ccc1[C@H]1Oc2cc3oc(=O)ccc3cc2[C@@H]2C=C(C)C[C@@H](c3ccc(O)c(O)c3)[C@H]12
- inhibition [3]: 4.8%
- inhibition [4]: 5.2%
- inhibition [5]: 0.3%

Compound: COc1cc(O)ccc1[C@@H]1CC(C)=C[C@H]2c3cc4ccc(=O)oc4cc3O[C@H](c3ccc(O)c(O)c3)[C@H]21
- inhibition [3]: 8.4%
- inhibition [4]: 19.8%
- inhibition [5]: 0.2%
- inhibition [6]: -8.6%
